Counter-ions that a name gives are not always drawn.

In this experiment the test system is KRas G12D-mediated phosphorylation of ERK. Kind of experiment: Inhibition of KRas G12D-mediated phosphorylation of ERK in AGS cells. Particulars: Homo sapiens; AGS cells expressing G12D, 3 hours, phospho-ERK normalized to GAPDH. Format: cell-based. The protocol:
Cells were plated in tissue culture treated 96 well plates at a density of 40,000 cells/well and allowed to attach for 12-14 hours. Diluted compounds were then added in a final concentration of 0.5% DMSO. After 3 hours, the medium was removed, 150 μL of 4.0% formaldehyde was added and the plates incubated at room temperature for 20 minutes. The plates were washed with PBS, and permeabilized with 150 μL of ice cold 100% methanol for 10 minutes. Non-specific antibody binding to the plates was blocked using 100 μL Licor blocking buffer (Li-Cor Biotechnology, Lincoln Nebr.) for 1 hour at room temperature.
The amount of phospho-ERK was determined using an antibody specific for the phosphorylated form of ERK and compared to the amount of GAPDH. Primary antibodies used for the detection were added as follows: Phospho-ERK (Cell Signaling cs-9101) diluted 1:500 and GAPDH (Millipore MAB374) diluted 1:5000 in Licor block+0.05% Tween 20. The plates were incubated for 2 hours at room temperature. The plates were washed with PBS+0.05% Tween 20.
Secondary antibodies used to visualize primary antibodies were added as follows: Anti-rabbit-680 diluted 1:1000 and Anti-mouse-800 diluted 1:1000 both in Licor block+0.05% TweeN2O, and were incubated for 1 hour at room temperature. The plates were washed with PBS+0.05% Tween 20. A 100 μL aliquot of PBS was added to each well and the plates were read on a Li-Cor Odyssey CLX plate reader.
The phospho-ERK (Thr202/Tyr204 signal was normalized to the GAPDH signal for each well and percent of DMSO control values were calculated. IC50 values were generated using a 4-parameter fit of the dose response curve
Consider `CO[C@@H]1C[C@@H](COc2nc(N3C[C@H]4CC[C@@H](C3)N4)c3cnc(-c4cccc5cccc(Cl)c45)c(F)c3n2)N(C)C1` [Example 34, 4-((1R,5S)-3,8-diazabicyclo[3.2.1]octan-3-yl)-7-(8-chloronaphthalen-1-yl)-8-fluoro-2-(((2S,4R)-4-methoxy-1-methylpyrrolidin-2-yl)methoxy)pyrido[4,3-d]pyrimidine], for which the IC50 was 4.21 µM. To `Fc1c(-c2cccc3c2CCC3)ncc2c(N3CC4CCC(C3)N4)nc(OC[C@@]34CCCN3C[C@H](F)C4)nc12` [Example 428] belongs 6.96 µM. The compound `Oc1cc(-c2ncc3c(N4C[C@H]5CC[C@@H](C4)N5)nc(OC4CCOCC4)nc3c2F)c2ccccc2c1` [Example 72, 4-(4-((1R,5S)-3,8-diazabicyclo[3.2.1]octan-3-yl)-8-fluoro-2-((tetrahydro-2H-pyran-4-yl)oxy)pyrido[4,3-d]pyrimidin-7-yl)naphthalen-2-ol] registered a concentration for half-maximal inhibition (IC50) of 7.26 µM. To `Fc1ccc2cccc(-c3ncc4c(N5C[C@H]6CC[C@@H](C5)N6)nc(OC[C@@]56CCCN5C[C@H](F)C6)nc4c3F)c2c1F` [Example 430, 4-((1R,5S)-3,8-diazabicyclo[3.2.1]octan-3-yl)-7-(7,8-difluoronaphthalen-1-yl)-8-fluoro-2-(((2R,7aS)-2-fluorotetrahydro-1H-pyrrolizin-7a(5H)-yl)methoxy)pyrido[4,3-d]pyrimidine] belongs 0.141 µM. `CCCOc1nc(N2C[C@H]3CC[C@@H](C2)N3)c2cnc(-c3cc(O)cc4ccccc34)c(F)c2n1` [Example 47, 4-(4-((1R,5S)-3,8-diazabicyclo[3.2.1]octan-3-yl)-8-fluoro-2-propoxypyrido[4,3-d]pyrimidin-7-yl)naphthalen-2-ol] displayed an IC50 of 4.45 µM. `O[C@H]1CN2CCC[C@@]2(COc2nc(N3CC4CCC(C3)N4)c3cnc(-c4cccc5cccc(Cl)c45)c(F)c3n2)C1` [Example 223, 7a-(((4-((1R,5S)-3,8-diazabicyclo[3.2.1]octan-3-yl)-7-(8-chloronaphthalen-1-yl)-8-fluoropyrido[4,3-d]pyrimidin-2-yl)oxy)methyl)hexahydro-1H-pyrrolizin-2-ol bis-2,2,2-trifluoroacetate]: half-maximal inhibition (IC50) required 4.27 µM. The value for `Fc1c(-c2cccc(Cl)c2Cl)ncc2c(N3C[C@H]4CC[C@@H](C3)N4)nc(OCC34CCCN3CCC4)nc12` [Example 277, 4-((1R,5S)-3,8-diazabicyclo[3.2.1]octan-3-yl)-7-(2,3-dichlorophenyl)-8-fluoro-2-((hexahydro-1H-pyrrolizin-7a-yl)methoxy)pyrido[4,3-d]pyrimidine] was 3.68 µM; that for `Oc1cc(-c2ncc3c(N4C[C@H]5CC[C@@H](C4)N5)nc(OC[C@@]45CCCN4C[C@H](F)C5)nc3c2F)c2c(F)c(F)ccc2c1` [Example 246, 4-(4-((1R,5S)-3,8-diazabicyclo[3.2.1]octan-3-yl)-8-fluoro-2-(((2R,7aS)-2-fluorohexahydro-1H-pyrrolizin-7a-yl)methoxy)pyrido[4,3-d]pyrimidin-7-yl)-5,6-difluoronaphthalen-2-ol] was 0.001 µM. `Oc1cc(-c2ncc3c(N4C[C@H]5CC[C@@H](C4)N5)nc(OCCCN4CCOCC4)nc3c2F)c2ccccc2c1` [Example 22, 4-(4-((1R,5S)-3,8-diazabicyclo[3.2.1]octan-3-yl)-8-fluoro-2-(3-morpholinopropoxy)pyrido[4,3-d]pyrimidin-7-yl)naphthalen-2-ol]: the IC50 was determined as 1.89 µM. Compared with the last compound, the IC50 is about 1900-fold higher.

The compound `CC1CCc2cccc(-c3ncc4c(N5CC6CCC(C5)N6)nc(OC[C@@]56CCCN5C[C@H](F)C6)nc4c3F)c21` (stereo partly drawn) [Example 429, 4-(3,8-diazabicyclo[3.2.1]octan-3-yl)-8-fluoro-2-(((2R,7aS)-2-fluorotetrahydro-1H-pyrrolizin-7a(5H)-yl)methoxy)-7-(3-methyl-2,3-dihydro-1H-inden-4-yl)pyrido[4,3-d]pyrimidine] returned an IC50 of 1.7 µM. Turning to `COC1(OC)CN2CCCC2(COc2nc(N3C[C@H]4CC[C@@H](C3)N4)c3cnc(-c4cccc5cccc(Cl)c45)c(F)c3n2)C1` (stereo partly drawn) [Example 404, 4-((1R,5S)-3,8-diazabicyclo[3.2.1]octan-3-yl)-7-(8-chloronaphthalen-1-yl)-2-((2,2-dimethoxytetrahydro-1H-pyrrolizin-7a(5H)-yl)methoxy)-8-fluoropyrido[4,3-d]pyrimidine], the IC50 stood at 8.33 µM. Regarding `CC1(C)CN2C[C@H](F)CC2(COc2nc(N3CC4CCC(C3)N4)c3cnc(-c4cccc5cccc(Cl)c45)c(F)c3n2)C1` (mixture of isomers) [Example 325, 4-((1R,5S)-3,8-diazabicyclo[3.2.1]octan-3-yl)-7-(8-chloronaphthalen-1-yl)-8-fluoro-2-((6-fluoro-2,2-dimethyltetrahydro-1H-pyrrolizin-7a(5H)-yl)methoxy)pyrido[4,3-d]pyrimidine], the IC50 is more than 16.7 µM. On to `CC(C)c1ccc(O)cc1-c1ncc2c(N3C[C@H]4CC[C@@H](C3)N4)nc(OCC34CCCN3CCC4)nc2c1F` [Example 403, 3-(4-((1R,5S)-3,8-diazabicyclo[3.2.1]octan-3-yl)-8-fluoro-2-((tetrahydro-1H-pyrrolizin-7a(5H)-yl)methoxy)pyrido[4,3-d]pyrimidin-7-yl)-4-isopropylphenol], for which the IC50 stood at 2.88 µM. This counts as single-digit micromolar. To `CN(C)C(=O)OC[C@H]1CC[C@@]2(COc3nc(N4CC5CCC(C4)N5)c4cnc(-c5cccc6cccc(Cl)c56)c(F)c4n3)CCCN12` [Example 405, (7a-(((4-(3,8-diazabicyclo[3.2.1]octan-3-yl)-7-(8-chloronaphthalen-1-yl)-8-fluoropyrido[4,3-d]pyrimidin-2-yl)oxy)methyl)hexahydro-1H-pyrrolizin-3-yl)methyl dimethylcarbamate] belongs 0.297 µM; to `CN1CCC[C@H]1COc1nc(N2C[C@H]3CC[C@@H](C2)N3)c2cnc(-c3cc(O)cc4ccccc34)c(Cl)c2n1` [Example 191, 4-(4-((1R,5S)-3,8-diazabicyclo[3.2.1]octan-3-yl)-8-chloro-2-(((S)-1-methylpyrrolidin-2-yl)methoxy)pyrido[4,3-d]pyrimidin-7-yl)naphthalen-2-ol], 5.05 µM; to `CC#Cc1cccc2cccc(-c3ncc4c(N5C[C@H]6CC[C@@H](C5)N6)nc(OCC56CCCN5CCC6)nc4c3F)c12` [Example 195, 4-((1R,5S)-3,8-diazabicyclo[3.2.1]octan-3-yl)-8-fluoro-7-(8-(prop-1-yn-1-yl)naphthalen-1-yl)-2-((tetrahydro-1H-pyrrolizin-7a(5H)-yl)methoxy)pyrido[4,3-d]pyrimidine], 2.46 µM. Take `Oc1cc(-c2ncc3c(N4C[C@H]5CC[C@@H](C4)N5)nc(OCCc4cccnc4)nc3c2F)c2ccccc2c1` [Example 106, 4-(4-((1R,5S)-3,8-diazabicyclo[3.2.1]octan-3-yl)-8-fluoro-2-(2-(pyridin-3-yl)ethoxy)pyrido[4,3-d]pyrimidin-7-yl)naphthalen-2-ol]: the midpoint of inhibition, the IC50, lay at 3.1 µM. Take `Fc1ccc2cccc(-c3ncc4c(N5CC6CCC(C5)N6)nc(OC[C@@]56CCCN5C[C@H](F)C6)nc4c3F)c2c1Cl` (racemic) [Example 336, 4-((1R,5S)-3,8-diazabicyclo[3.2.1]octan-3-yl)-7-(8-chloro-7-fluoronaphthalen-1-yl)-8-fluoro-2-((2-fluorotetrahydro-1H-pyrrolizin-7a(5H)-yl)methoxy)pyrido[4,3-d]pyrimidine]: half-maximal inhibition (IC50) required 1.06 µM.

Compound `Fc1c(-c2cccc(C(F)(F)F)c2C(F)(F)F)ncc2c(N3C[C@H]4CC[C@@H](C3)N4)nc(OCC34CCCN3CCC4)nc12` [Example 197, 4-((1R,5S)-3,8-diazabicyclo[3.2.1]octan-3-yl)-7-(2,3-bis(trifluoromethyl)phenyl)-8-fluoro-2-((tetrahydro-1H-pyrrolizin-7a(5H)-yl)methoxy)pyrido[4,3-d]pyrimidine] displayed an IC50 of more than 16.7 µM.

The compound `CN(C)C1CN(c2nc(N3C[C@H]4CC[C@@H](C3)N4)c3cnc(-c4cccc5cccc(Cl)c45)c(F)c3n2)C1` [Example 122, 1-(4-((1R,5S)-3,8-diazabicyclo[3.2.1]octan-3-yl)-7-(8-chloronaphthalen-1-yl)-8-fluoropyrido[4,3-d]pyrimidin-2-yl)-N,N-dimethylazetidin-3-amine] came in with an IC50 of more than 16.7 µM.

`Fc1c(-c2cccc3cccc(Cl)c23)ncc2c(N3CC4CCC(C3)N4)nc(OCC34CCCN3C[C@H](F)C4)nc12` (stereo partly drawn) [Example 226, 4-((1R,5S)-3,8-diazabicyclo[3.2.1]octan-3-yl)-7-(8-chloronaphthalen-1-yl)-8-fluoro-2-((2-fluorotetrahydro-1H-pyrrolizin-7a(5H)-yl)methoxy)pyrido[4,3-d]pyrimidine bis-hydrochloride] came in with an IC50 of 6.75 µM. This lies in the single-digit micromolar range.

Compound `Oc1cc(-c2ncc3c(N4C[C@H]5CC[C@@H](C4)N5)nc(OCC(F)(F)F)nc3c2F)c2ccccc2c1` [Example 48, 4-(4-((1R,5S)-3,8-diazabicyclo[3.2.1]octan-3-yl)-8-fluoro-2-(2,2,2-trifluoroethoxy)pyrido[4,3-d]pyrimidin-7-yl)naphthalen-2-ol] showed an IC50 of 4.88 µM.

In general, IC50 refers to the concentration that inhibits the measured activity by half.

Values taken from patent US11453683B1, “KRas G12D inhibitors” (Mirati Therapeutics, Inc., priority 2019, dated 2022).
